Experimental data reported in patent publication US5482930A, “Anti-inflammatory composition and method with des-Tyr dynorphin and analogues” (The Regents of the University of California, priority 1993, dated 1996).
Structures can show the parent of a compound that is named as a salt. Residues, ends and D or L forms follow the SMILES beside them.

Key:
[1] = Blood pressure and oxygenation after i.v. dose; type: in vivo, rat; details: 0.2 mg/kg i.v.
[2] = tested on: thermal edema of the hind paw; assay: Heat-induced swelling and edema of the rat hind paw (58° C. water, one minute); type: in vivo; details: for ED50, reducing thermal edema: i.v., anesthetized rat, hind paw 58° C. water one minute; for anti-inflammatory effect (FIG. 1): FIG. 1 legend
Method: In one bioassay, dynorphin A (2-17), synthesized by standard solid phase methods, was dissolved in sterile saline and injected intravenously via a branch of the femoral vein at various doses into an anesthetized rat. Ten minutes later a hind paw was immersed in 58° C. water for one minute. Thirty minutes after exposure to heat, the paw was removed at the ankle joint and weighed. The percent increase in weight of the heated paw relative to the unheated paw was taken as the index of inflammatory thermal edema. The general principles of this method have been discussed by Wei and Thomas, Ann. Rev. of Pharmacol. and Toxicol., 33, pp. 91-108 (1993).
Anesthetized rats were injected intravenously (i.v.) with saline (1 ml/kg) or naloxone hydrochloride ([…]) 5 minutes prior to i.v. injection with saline ([…]), dynorphin A (2-17) (0.5 mg/kg), or N-acetyldynorphin A (6-12 )-amide (3 mg/kg). Ten minutes after the second injection, the rat's hind paw was immersed in 58° C. water for one minute and 30 minutes later the animals were euthanized and the heated and unheated paw weights were measured. After saline/saline or naloxone HCl/saline, the percent increase in the weight of the heated paw, relative to the unheated paw, were 104±10% and 98±9%, respectively. The percent increases for the saline/dynorphin A (2-17) and naloxone HCl/dynorphin A (2-17) groups were 26±6% and 26±5%, respectively. The percent increases for the saline/N-acetyl-dynorphin A (6-12) amide and naloxone HCl/N-acetyl-dynorphin A (6-12) amide groups were 21±3% and 27±12%, respectively.

[3] = Direct comparison of dynorphin A analogs with an amide or a carboxyl C-terminus (ED50, bioassay not given); type: in vivo; details: i.v.; amide versus carboxyl C-terminus
Method: Similar results were obtained for D-Ala^2 -dynorphin A (1-17) amide, with an ED50 value of 0.5 mg/kg i.v. versus a value of 1.0 mg/kg i.v. for D-Ala^2 -dynorphin A (1-17).

neurogenic inflammation = details: intravenous route; relative to saline-injected controls; cited from earlier work
[4] = tested on: edema in the anesthetized rat's paw after thermal injury; details: 3.75 mg/kg administered intravenously; cited from earlier work

In the case of CC[C@H](C)[C@H](NC(=O)[C@H](CCCNC(=N)N)NC(=O)[C@H](CCCNC(=N)N)NC(=O)[C@H](CC(C)C)NC(=O)[C@H](Cc1ccccc1)NC(=O)CNC(=O)CN)C(=O)N[C@@H](CCCNC(=N)N)C(=O)N1CCC[C@H]1C(=O)N[C@@H](CCCCN)C(=O)N[C@@H](CC(C)C)C(=O)N[C@@H](CCCCN)C(=O)N[C@@H](Cc1c[nH]c2ccccc12)C(=O)N[C@@H](CC(=O)O)C(=O)N[C@@H](CC(N)=O)C(=O)N[C@@H](CCC(N)=O)C(=O)O [Embodiment NO:1, G-G-F-L-R-R-I-R-P-K-L-K-W-D-N-Q], the cyanosis / oxygenation [1] is reported as “no evidence of cyanosis”, the “effect on blood pressure” value [1] is reported as “slight fall in blood pressure” and the “duration of fall in blood pressure” value ([1]; then mean arterial pressure returned to baseline) is reported as 10 to 15 min.

With CC[C@H](C)[C@H](NC(=O)[C@H](CCCNC(=N)N)NC(=O)[C@H](CCCNC(=N)N)NC(C)=O)C(=O)N[C@@H](CCCNC(=N)N)C(=O)N1CCC[C@H]1C(=O)N[C@@H](CCCCN)C(=O)N[C@H](CC(C)C)C(N)=O [Embodiment NO:4, Ac-R-R-I-R-P-K-l-NH2] (HELM PEPTIDE1{[ac].R.R.I.R.P.K.[dL].[am]}$$$$V2.0) the “ED50, reducing thermal edema” value [2] was 2.2 (1.2-4.1) mg/kg.

D-Ala^2 -dynorphin A (1-17) amide gave an ED50 [3] of 0.5 mg/kg.

With dynorphin A (1-17) the “anti-inflammatory effect (FIG. 1)” value [2] was “substantially lacking potency” and the “ED50, reducing thermal edema” value [2] was 1.7 (1.2-2.4) mg/kg.

D-Ala^2 -dynorphin A (2-17) amide gave an ED50 [3] of 0.65 mg/kg.

In the case of dynorphin A (1-13), the “anti-inflammatory effect (FIG. 1)” value [2] is listed as “substantially lacking potency”, the “ED50, reducing thermal edema” value [2] is listed as 3.2 (1.9-5.5) mg/kg and the “median effective dose (ED50) producing 50% inhibition of dye leakage” value (neurogenic inflammation) is listed as 1.9 (1.5-2.4) mg/kg. For the same compound, the “prevention of edema after thermal injury” value [4] was “prevent edema”.

For D-Ala^2 -dynorphin A (1-17), the ED50 [3] was 1.0 mg/kg.

In the case of dynorphin A (1-10) amide, the “median effective dose (ED50) producing 50% inhibition of dye leakage” value (neurogenic inflammation) is given as 5.0 (3.5-7.2) mg/kg.

For “Ac-RRIRPKL-NH2 [Embodiment NO:3, Ac-R-R-I-R-P-K-L-NH2]”, the “ED50, reducing thermal edema” value [2] was 1.4 (0.6-3.7) mg/kg, the “percent increase in the weight of the heated paw, relative to the unheated paw” value (shortened to “percent increase … relative to the unheated paw”) ([2]; naloxone HCl pretreatment, then peptide 3 mg/kg i.v.) was 27±12% and the “antagonism of anti-inflammatory effect by naloxone” value ([2]; peptide 3 mg/kg i.v., naloxone 4 mg/kg i.v.) was “not antagonized”. The “percent increase … relative to the unheated paw” value ([2]; saline pretreatment, then peptide 3 mg/kg i.v.) was 21±3%.

Work on D-Ala^2 -dynorphin A (2-17) yielded an ED50 [3] of 1.2 mg/kg.

In the case of C=CCN1CC[C@]23c4c5ccc(O)c4O[C@H]2C(=O)CC[C@@]3(O)[C@H]1C5 [naloxone HCl, naloxone hydrochloride], the “percent increase … relative to the unheated paw” value ([2]; naloxone HCl (4 ml/kg) i.v. then saline, no peptide) is reported as 98±9%.
